Reference: patent US4308274A, “N-Alkylsulfonyl-, N-arylsulfonyl-, and N-aminosulfonylaminosulfinylcarbamate esters” (priority 1979, dated 1981)
Where two headings read alike, the source gives them in different places.

Assays:
[1] = system: house flies, Musca domestica; test: insecticidal activity against house flies (topical, 24 hours mortality); format: in vivo; details: read-out: House flies LD50
Method: Representative carbamate esters of the invention were tested for insecticidal activity against house flies, Musca domestica. Stock 1% concentrated solutions for each of the test compounds were made in acetone, and such solutions diluted with acetone to a concentration of 0.001-0.1%. House flies were treated topically on the notum by 1 μl of each of the diluted acetone solutions and percent mortality was counted 24 hours after application. The insects were held at a constant temperature of 60° F. Results are given in μg/g.

[2] = mammalian toxicity against Swiss white mice (oral); details: mouse, in vivo, corn oil carrier
Method: Mammalian toxicity was determined against Swiss white mice.

[3] = topical on the notum, 1 μl acetone solution, percent mortality 24 hours after application, 60° F

Molecule `CC(C)c1cccc(OC(=O)N(C)[S+]([O-])N(C)S(=O)(=O)c2ccccc2)c1` (stereo not drawn) [III, 3-isopropylphenyl N-(N'-benzenesulfonyl-N'-methylaminosulfinyl)-N-methylcarbamate] has an LD50 ([1]; topical, 24 h) of 95 mg/kg and an LD50 [2] of 150 mg/kg.
For `CCN([S+]([O-])N(C)C(=O)Oc1cccc2c1OC(C)(C)C2)S(C)(=O)=O` (stereo not drawn) [VI, 2,3-dihydro-2,2-dimethylbenzofuranyl-7 N-(N'-methanesulfonyl-N'-ethylaminosulfinyl)-N-methylcarbamate], the LD50 ([1]; topical, 24 h) was 12.5 mg/kg.
With `CCN([S+]([O-])N(C)C(=O)ON=C(C)SC)S(C)(=O)=O` (stereo not drawn) [VIII, S-methyl N-[N'-(N"-methanesulfonyl-N"-ethylaminosulfinyl)-N'-methylcarbamoyloxy]thioacetimidate] the LD50 [1, 3] was 25 mg/kg and the LD50 [2] was 250 mg/kg.
Work on `CC(C)Oc1ccccc1OC(=O)N(C)[S+]([O-])N(C)S(=O)(=O)c1ccccc1` (stereo not drawn) [II, 2-isopropoxyphenyl N-(N'-benzenesulfonyl-N'-methylaminosulfinyl)-N-methylcarbamate] yielded an LD50 ([1]; topical, 24 h) of 55 mg/kg and an LD50 [2] of 250 mg/kg.
Molecule `CN(C(=O)Oc1cccc2c1OC(C)(C)C2)[S+]([O-])N(C)S(=O)(=O)c1ccccc1` (stereo not drawn) [Example I, 2,3-dihydro-2,2-dimethylbenzofuranyl-7N-(N'-benzenesulfonyl-N'-methylaminosulfinyl)-N-methylcarbamate] has an LD50 ([1]; topical, 24 h) of 9.5 mg/kg and an LD50 [2] of 35 mg/kg.
In the case of `CN(C(=O)Oc1cccc2ccccc12)[S+]([O-])N(C)S(=O)(=O)c1ccccc1` (stereo not drawn) [IV, 1-naphthyl N-(N'-benzenesulfonyl-N'-methylaminosulfinyl)-N-methylcarbamate], the LD50 ([1]; topical, 24 h) was 450 mg/kg and the LD50 [2] was over 500 mg/kg.
`CCN([S+]([O-])N(C)C(=O)Oc1cccc(C(C)C)c1)S(C)(=O)=O` (stereo not drawn) [VII, 3-isopropylphenyl N-(N'-methanesulfonyl-N'-ethylaminosulfinyl)-N-methylcarbamate] gave an LD50 ([1]; topical, 24 h) of 90 mg/kg and an LD50 [2] of 200 mg/kg.
With `CCN([S+]([O-])N(C)C(=O)Oc1cccc2c1OC(C)(C)C2)S(=O)(=O)N1CCOCC1` (stereo not drawn) [Example XI, 2,3-Dihydro-2,2-dimethylbenzofuranyl-7-N-(N'-morpholinosulfonyl-N'-ethylaminosulfinyl)-N-methylcarbamate] the LD50 ([1]; topical, 24 h) was 10 mg/kg.
Molecule `CCCCN(CCCC)S(=O)(=O)N(C)[S+]([O-])N(C)C(=O)Oc1cccc2c1OC(C)(C)C2` (stereo not drawn) [Example IX, 2,3-dihydro-2,2-dimethylbenzofuranyl-7 N-(N'-dibutylaminosulfonyl-N'-methylaminosulfinyl)-N-methylcarbamate] has an LD50 ([1]; topical, 24 h) of 12 mg/kg and an LD50 [2] of 25 mg/kg.
Molecule `CSC(C)=NOC(=O)N(C)[S+]([O-])N(C)S(=O)(=O)c1ccccc1` (stereo not drawn) [V, S-methyl N-[N'-(N"-benzenesulfonyl-N"-methylaminosulfinyl)-N'-methylcarbamoyloxy]thioacetimidate] has an LD50 [1, 3] of 17.5 mg/kg and an LD50 [2] of 86 mg/kg.
Work on `CN(C(=O)Oc1cccc2c1OC(C)(C)C2)[S+]([O-])N(C)S(=O)(=O)N1CCOCC1` (stereo not drawn) [Example X, 2,3-Dihydro-2,2-dimethylbenzofuranyl-7N-[N'-(N"-morpholinosulfonyl)-N'-methylaminosulfinyl]N-methylcarbamate] yielded an LD50 ([1]; topical, 24 h) of 13 mg/kg.
Work on `CCCCN(CCCC)S(=O)(=O)N(C)[S+]([O-])N(C)C(=O)ON=C(C)SC` (stereo not drawn) [Example XII, S-methyl N-[N'-(N"-dibutylaminosulfonyl-N"-methylaminosulfinyl)-N'-methylcarbamoyloxy]thioacetimidate] yielded an LD50 [1, 3] of 9 mg/kg and an LD50 [2] of 100 mg/kg.
